Assay results from US12643871B2, “Aryl formamide compound containing chiral sulfur oxide or salt thereof, preparation method, herbicidal composition and use thereof” (Qingdao Kingagroot Chemical Compound Co., Ltd., priority 2019, dated 2026).

Assays:
Type in all cases: in vivo
Abutilon theophrasti = test: Comparison experiment (post-emergence) against racemate / S configuration; settings: 30 g/ha; 3-4 weeks after sowing, 4-5 leaf-stage of weed, 25DAA
From the text: (§1) The above growth control rates are fresh weight control rates.
(§2) Experiment on weeding effect in post-emergence stage: monocotyledonous and dicotyledonous weed seeds (Descurainia sophia, Capsella bursa-pastoris, Galium aparine, Stellaria media, Lithospermum arvense, Rorippa indica, Alopecurus aequalis, Beckmannia syzigachne, Sclerochloa dura, Phleum paniculatum, Bromus japonicus, Aegilops tauschii, Phalaris arundinacea, Amaranthus retroflexus, Chenopodiaceae, Commelina communis, Sonchus arvensis, convolvulus arvensis, Cirsium setosum, Solanum nigrum, Acalypha australis, Digitaria sanguinalis, Echinochloa crusgalli, Setaria viridis, Setaria glauca, Leptochloa chinensis, Monochoria vaginalis, Sagittaria trifolia, Scirpus juncoides, Cyperus rotundus, Cyperus iria, Cyperus difformis, Fimbristylis, Portulaca oleracea, Xanthium sibiricum, Pharbitis nil) and major crop seeds (wheat, corn, rice, soybean, cotton, oilseed rape, millet, sorghum, potato, sesame, ricinus) were placed in plastic pots filled with soil, then covered with 0.5-2 cm of soil, allowed to grow in a good greenhouse environment. […] The tested compounds of the present invention were respectively dissolved in acetone, then added with Tween 80 and 1.5 liter/ha of emulsifiable concentrate of methyl oleate as synergist, diluted with a certain amount of water to obtain a solution with a certain concentration, and sprayed with a spray tower onto the plants. […]
(§3) If there is no clear marker, the post-seedling test conditions are the same as above, and the experimental results are shown in Tables 4-7.

Green Setaria viridis = test: as above; settings: for Results of comparison experiment, Green Setaria viridis (60 g/ha): 25DAA
From the text: as §1, §2, §3

Leptochloa chinensis = test: as above; settings: 3-4 weeks after sowing, 4-5 leaf-stage of weed; for Results of comparison experiment, Leptochloa chinensis (60 g/ha): 25DAA
From the text: as §1, §2, §3

Rice(Longyang 16) = test: Comparison experiment (post-emergence), crop safety on direct seeding rice; settings: 1.5-2 leaf-stage of direct seeding rice variety Longyang 16, 25 DAA
From the text: as §1
(§4) Experiment on weeding effect in post-emergence stage: monocotyledonous and dicotyledonous weed seeds (Descurainia sophia, Capsella bursa-pastoris, Galium aparine, Stellaria media, Lithospermum arvense, Rorippa indica, Alopecurus aequalis, Beckmannia syzigachne, Sclerochloa dura, Phleum paniculatum, Bromus japonicus, Aegilops tauschii, Phalaris arundinacea, Amaranthus retroflexus, Chenopodiaceae, Commelina communis, Sonchus arvensis, convolvulus arvensis, Cirsium setosum, Solanum nigrum, Acalypha australis, Digitaria sanguinalis, Echinochloa crusgalli, Setaria viridis, Setaria glauca, Leptochloa chinensis, Monochoria vaginalis, Sagittaria trifolia, Scirpus juncoides, Cyperus rotundus, Cyperus iria, Cyperus difformis, Fimbristylis, Portulaca oleracea, Xanthium sibiricum, Pharbitis nil) and major crop seeds (wheat, corn, rice, soybean, cotton, oilseed rape, millet, sorghum, potato, sesame, ricinus) were placed in plastic pots filled with soil, then covered with 0.5-2 cm of soil, allowed to grow in a good greenhouse environment. After 2 weeks of sowing, the test plants were treated in the 2 leaf stage. The tested compounds of the present invention were respectively dissolved in acetone, then added with Tween 80 and 1.5 liter/ha of emulsifiable concentrate of methyl oleate as synergist, diluted with a certain amount of water to obtain a solution with a certain concentration, and sprayed with a spray tower onto the plants. After the application, the plants were cultured for 15 days in the greenhouse, and then the experimental results of the weeding were counted. The doses of the used compounds were 500, 250, 125, 60, 30, 15 g/ha, and the averages were obtained by repeating for three times.
as §3
Longyang 16 is an important cultivated variety representative of long-grain fragrant rice in northeast China. Long-grain fragrant rice is sensitive to herbicides and prone to drug damage, especially HPPD herbicides such as mesotrione and benzobicylon. […] It was not consistent with the well-known structure-activity relationship that aryloxyphenoxypropionic acid herbicides and phenoxypropionic acid herbicides in effective form have high activity to weeds and heavy damage to crops, and in ineffective form have almost no activity.

Digitaria sanguinalis [1] = test: Comparison experiment (post-emergence) against racemate / S configuration; settings: 30 g/ha, 3-4 weeks after sowing, 4-5 leaf-stage of weed, 25DAA
Alopecurus japonicas = test: as above; settings: Table 6, post-seedling test conditions
From the text: as §1, §4, §3

Digitaria sanguinalis [2] = test: as above; settings: Table 6, post-seedling test conditions; for pest or weed control at 30 g/ha: Digitaria sanguinalis, post-emergence
From the text: as §1, §4, §3

[3] = 3-4 weeks after sowing, 4-5 leaf-stage of weed
[4] = Table 6, post-seedling test conditions

Structure (SMILES)	Results of comparison experiment, Abutilon theophrasti (30 g/ha) (Abutilon theophrasti)	Results of comparison experiment, Green Setaria viridis (60 g/ha) (Green Setaria viridis; [3])	Results of comparison experiment, Leptochloa chinensis (60 g/ha) (Leptochloa chinensis)	Results of comparison experiment, Digitaria sanguinalis (30 g/ha) (Digitaria sanguinalis [1])	Results of comparison experiment, Alopecurus japonicas (120 g/ha) (Alopecurus japonicas)	Results of comparison experiment, Green Setaria viridis (30 g/ha) (Green Setaria viridis; [4])	pest or weed control at 30 g/ha (Digitaria sanguinalis [2])	other results
CCC[S+]([O-])c1c(C(F)(F)F)ccc(C(=O)Nc2nnc(C)o2)c1F (single isomer, unassigned) [Control Compound B]	90%	90%	30%	80%	–	–	–	Results of comparison experiment, Green Setaria viridis (30 g/ha) (Green Setaria viridis; 3-4 weeks after sowing, 4-5 leaf-stage of weed, 25 DAA (Table 5)): 10%; Results of comparison experiment, Leptochloa chinensis (125 g/ha) (Leptochloa chinensis; 125 g/ha, 25 DAA (Table 5)): 80%; Results of comparison experiment, Rice(Longyang 16) (250 g/ha) (Rice(Longyang 16); 250 g/ha): 5%; Results of comparison experiment, Rice(Longyang 16) (500 g/ha) (Rice(Longyang 16); 500 g/ha): 15%
Cc1nnc(NC(=O)c2ccc(C(F)(F)F)c([S+](C)[O-])c2F)o1 (single isomer, unassigned) [Control Compound D]	50%	10%	0%	0%	–	–	–	–
CSc1c(C(=O)Nc2nnc(C)o2)ccc(C(F)(F)F)c1[S+](C)[O-] (stereo not shown) [Control Compound F′]	–	–	–	–	0%	5%	–	Results of comparison experiment, Digitaria sanguinalis (30 g/ha) (Digitaria sanguinalis [2]): 0%
CCSc1c(C(F)(F)F)ccc(C(=O)Nc2nnc(C)o2)c1SC [Control Compound D′]	–	–	–	–	0%	20%	20%	–
CC[S+]([O-])c1c(C(F)(F)F)ccc(C(=O)Nc2nnc(C)o2)c1SC (stereo not shown) [Control Compound B′]	–	–	–	–	0%	30%	30%	–
Cc1nnc(NC(=O)c2ccc(C(F)(F)F)c([S+](C)[O-])c2F)o1 (single isomer, unassigned) [Control Compound C]	60%	20%	0%	–	–	–	–	pest or weed control at 30 g/ha (Digitaria sanguinalis [1]; Digitaria sanguinalis, post-emergence, 600 h): 0%
